Results taken from patent US20200009068A1, “NANOPARTICLE FORMULATIONS FOR ENHANCED DRUG DELIVERY TO THE BLADDER” (The Johns Hopkins University, priority 2017, published 2020).

Legend:
RT4 cells = experiment: In vitro cytotoxicity assay (CellTiter-Glo cell viability); type: cell-based, human; settings: 72 hr, triplicate
Protocol: In vitro cytotoxicity of CDDP, oxaliplatin, PAA-CDDP NPs, PEGlow-PAA-CDDP NPs and PEGhigh-PAA-CDDP NPs was evaluated using a superficial bladder cancer cell line (RT4) in triplicate. RT4 cells were purchased from the American Type Culture Collection (ATCC, Manassas, Va.) and cultured in McCoy's 5A (Thermo Fisher Scientific, Waltham, Mass.) at 37° C. under 5% CO2. Cells were seeded in 96-well tissue-treated culture plates at a density of 5×10^3 cells in 100 μl of complete medium and cultured overnight. Then, the supernatant was removed, and a known concentration of CDDP, oxaliplatin, or CDDP NPs (100 μl) was added into the wells. After 72 hr, cell viability was measured using CellTiter-Glo Luminescent Cell Viability Assay Kit (Promega, Madison, Wis.) according to manufacturer's protocol. Acquired data was analyzed to depict sigmoidal dose-response curve with Graph Pad Prism 5 (Graph Pad Software Inc., San Diego, Calif.) using the equation log(inhibitor) vs. response-variable slope.

[1] = Bladder uptake and retention in rats (CDDP content by AAS); type: in vivo; settings: intravesical
Protocol: Female Fischer 344 rats (age 7 weeks) were purchased from Harlan (Indianapolis, Ind.) and acclimated in the animal facility for 1 week. Before starting the experiment, rats were randomly divided into different groups (n≥5). Rats were anesthetized with an isoflurane vaporizer and nose cone system and catheterized using a 20G angiocatheter sheath. After catheterization, the bladder was voided using aspiration and/or gentle pressure on the abdomen. Then, 300 μl of CDDP solution, PAA-CDDP NPs, PEGlow-PAA-CDDP NPs, or PEGhigh-PAA-CDDP NPs (CDDP content 0.7 mg/ml) was instilled by intravesical administration. Rats were maintained under anesthesia for 1 h and then allowed to wake up. Plasma and bladder tissues were obtained at 1 and 4 h for analysis of CDDP content. Bladder tissues were dipped in PBS and gently squeezed with forceps to remove any residual fluid.
(§1) 200 μl of plasma or bladder were transferred to a clean borosilicate glass cell culture tube, and 1 ml of 22% nitric acid was added. All samples were heated to 90° C. to digest plasma proteins or bladder tissues and to extract platinum. The solution was heated until a dry yellow film was obtained. Then, 1 ml of 2.2% nitric acid added to dissolve the dried residue containing platinum. CDDP content in the solution was analyzed by AAS. The lowest limit of quantification for CDDP was 250 ng/ml (<1% of the administered dose).

[2] = 50 patients, intravesical CDDP for more than 4 months; cited from earlier work
[3] = CDDP levels in mouse bladder after intravesical administration; type: in vivo; settings: mice
Protocol: Female CF-1 mice (age 8 weeks) were purchased from Harlan (Indianapolis, Ind.) and acclimated in the animal facility for 4 weeks. Mice were randomly divided into different groups (n≥5). Mice were anesthetized with an isoflurane vaporizer and nose cone system and catheterized using polyethylene tubing mounted on a 30G needle. After catheterization, the bladder was emptied of urine by aspiration and/or gentle pressure on the abdomen. Then, 100 μl of CDDP solution, PAA-CDDP NPs, PEGlow-PAA-CDDP NPs or PEGhigh-PAA-CDDP NPs at 0.7 mg/ml CDDP content was instilled into the bladder by intravesical administration. Mice were maintained under anesthesia for 1 h and then allowed to wake up. To assess systemic exposure, mice were euthanized at 1, 4, and 24 h and plasma was obtained for analysis of CDDP content. To assess local toxicity of CDDP solution and CDDP NPs, mice received a total of three intravesical doses spaced one week apart. Bladder tissues were obtained 24 h after the third dose, photographed, and weighed.
as §1, with “The solution was heated until a dry yellow film was obtained. Then, 1 ml of 2.2% nitric acid added to dissolve the dried residue containing platinum.” left out

[4] = tested on: N-methyl-N-nitrosourea (MNU) induced rat bladder carcinogenesis model; experiment: Immunohistochemical staining of bladder sections; type: in vivo; settings: CDDP study, week 15
Protocol: Fischer 344 female rats (age 7 weeks) were anesthetized with an isoflurane vaporizer and nose cone system. After complete anesthesia and preparation of the surgical area, a 20G angiocatheter (BD) was placed into the rat's urethra and the bladder was emptied of urine. MNU (1.5 mg/kg MNU dissolved in 0.30 ml of 0.9% saline, pH 6.0) was then instilled into the bladder under 45 min of continued sedation to prevent spontaneous micturition and allow absorption. In order to explore the potential for treatment to prevent recurrence, treatment was initiated from weeks 8-14. Treatment groups (n=5 per group) included CDDP and PAA-CDDP NPs dosed weekly. All formulations were delivered at a concentration of 0.7 mg/ml in 300 μl. Rats were sacrificed at week 15 for histopathologic analysis of bladder tissue. Bladders were formalin fixed, paraffin embedded, sectioned, and stained with hematoxylin-eosin for classification according to the World Health Organization/International Society of Urological Pathology consensus. Tumor staging was performed in a blinded fashion by a board certified genitourinary pathologist.
For immunohistochemical staining, high-temperature antigen retrieval (18-23 psi/126° C.) was performed by immersing the slides in Trilogy (Cell Marque, Hot Springs, Ark.). Endogenous peroxidase activity was blocked for 5 min in using Dual Endogenous Enzyme Block (Dako S2003). Primary Antibody used included KI 67 (Abcam;ab16667). Slides were stained with Impact DAB (Vector Labs, Burlingame, Calif., USA) for 3 min and counterstained with haematoxylin (Richard-Allen, Kalamazoo, Mich., USA). For each section, Ki67+, cells were counted in 10 random 400× fields.
In a MNU-induced rat bladder carcinogenesis model as described in Example 3, Fischer Rat received weekly intravesical administration of Taxotere, DTX NS, or saline, for six weeks.

[5] = systemic CDDP therapy; cited from earlier work
[6] = tested on: N-methyl-N-nitrosourea (MNU) induced rat bladder carcinogenesis model; experiment: In vivo efficacy, tumor staging by histopathology; settings: weekly intravesical dosing weeks 8-14, 0.7 mg/ml in 300 μl, sacrifice week 15
From the text: The N-methyl-N-nitrosourea (MNU) rat model of bladder cancer was chosen because it recapitulates human non-muscle invasive bladder cancer, with carcinoma in situ (CIS), non-invasive papillary carcinoma (Ta), and high grade invasive papillary carcinoma (T1) histologies, and progresses from dysplasia to NMIBC to MIBC (Steinberg G D, et al., Cancer Res, 50(20):6668-74 (1990)). This animal model progresses from dysplasia to NMIBC between about week 8 and about week […], making it a desirable time to initiate treatment and a good recapitulation of a chemopreventative treatment model. Additionally, the MNU model represents an outbred strain of NMIBC, as opposed to an inbred strain utilizing immortal clones of genetically identical tumor strains. […] Since no reliable xenograft model was believed to be present of NMIBC that progresses to MIBC in a temporal time-dependent fashion similar to human urothelial cancer, a carcinogen model was chosen to recapitulate the heterogeneity of human disease, study the antineoplastic and immunologic effects of treatment, and reflect the typical progression of non-muscle to muscle invasive cancer. In this model, the presence of NMIBC progresses from about week 8 to about week 15, at which point all rats have NMIBC.
Fischer 344 female rats (age 7 weeks) were anesthetized with an isoflurane vaporizer and nose cone system. […]

For `N.N.O=C([O-])C1(C(=O)[O-])CCC1.[Pt+2]` [Carboplatin], the “RT4 cells-IC50” value (RT4 cells) was 17.18 ± 0.056 μg/ml of Pt.

In the case of `N.N.[Cl][Pt][Cl]` [Cisplatin, cis-diamminedichloridoplatinum (II)], the “CDDP levels in rat bladder at 4 h” value [1] is listed as “below the level of detection”, the “patients who stopped treatment early due to chemical cystitis” value [2] is listed as 6% and the “patients with anaphylactic reaction due to systemic drug absorption resulting in hypotensive shock” value [2] is listed as 14%. For the same compound, the “CDDP levels in mouse bladder at 1 h” value ([3]; 1 h under anesthesia) was “similar”, the “CDDP levels in mouse bladder at 4 h” value ([3]; 4 h (3 h ambulatory time)) was “below the limit of quantitation” and the “Ki67+ staining compared to untreated controls” value [4] was “decreased Ki67+ staining, though statistically indistinguishable from the untreated control group”. The “number of CD3+ cells compared to untreated controls” value [4] was “without differences”, the “number of CD8+ cells compared to untreated controls” value [4] was “significantly lower numbers” and the “number of Foxp3+ cells compared to untreated controls” value [4] was “without differences”. For the same compound, the “cases with hypersensitivity reactions” value [5] was 5-20%, the “rats with T1 high grade tumors in the bladder” value [6] was 20% and the “RT4 cells-IC50” value (RT4 cells) was 1.39 ± 0.03 μg/ml of Pt.
